Reference: patent US20240156800A1, “EP300 DEGRADER AND USES THEREOF IN NEUROBLASTOMA” (DANA-FARBER CANCER INSTITUTE, INC., priority 2021, published 2024)
Entries after “also recorded” stand apart in the source; their conditions may differ.

Legend:
[1] = test system: super-enhancer regulated and CRC genes; test: ERCC spike-in RNA-seq of xenograft tumor cells; assay type: in vivo, human
Description: For in vivo analyses, tumors were removed from animals treated with either vehicle […] to filtering for single cells through a […] filter. Single cell suspensions were then solubilized in TRIzol™ (Ambion) as described above, with processing, including ERCC RNA spike in controls, treatment with RNAse-free DNAse I, and spin purification. Following preparation, there was sufficient material to proceed with RNAseq analysis for four vehicle control and three JQAD1 treated tumor specimen. Purified RNA samples were subjected to library construction with a low input RNA protocol followed by poly-adenylation preparation and sequencing using the Illumina NextSeq® 500 (paired end, 75 bp reads). Raw reads for RNA-seq of in vivo models were aligned first using hisat2 v2.1 in paired-end mode against the mm9 revision of the mouse genome to filter out contaminating mouse reads. Remaining reads were aligned to a reference genome containing the hg19 revision of the human reference and the sequences of ERCC spike-in probes. Expression was quantified using sorted BAMs, a gene reference built using ERCC sizes and RefSeq genes downloaded Jul. 15, 2017, and htseq-count with parameters -I gene_id -stranded=reverse -f bam -m intersection-strict. Read counts were converted to transcripts per million (TPM) and used for cell number-normalization. […]

Kelly NB cell xenografts = test: Kelly NB cell subcutaneous xenografts in NSG mice; assay type: in vivo; details: 40 mg/Kg IP once or twice daily
Experimental: For tumor studies, eight-week-old female NSG™ mice (Jackson Laboratories) were subcutaneously implanted with 2.5×10^6 Kelly cells in 50% matrigel/PBS. Mice were assigned to three groups: vehicle (n=11), JQAD1 (40 mg/kg/day) (n=12) or JQAD1 (40 mg/kg, twice daily) (n=12) by IP injection. Treatment with small-molecule inhibitors was initiated once tumors engrafted and reached 100-150 mm^3. Mice were treated for 21 days and then followed for survival. Tumors were measured by calipers, and mice were weighed every three days. Animals were euthanized according to institutional guidelines when tumors reached […] in length or width, or if animals became moribund. Tumor sizes were compared at each time point by two-way ANOVA with post-hoc Tukey tests. Tumor growth curve kinetics were analyzed by both logistic regression and mixed-effects two-way ANOVA with post-hoc Tukey tests to determine whether growth kinetics differed between treatment groups.
Separately, eight animals were xenografted as described above, and treated with vehicle (n=4) or JQAD1 (n=4) at 40 mg/kg IP daily for 14 days. These animals were sacrificed at day 14, following which tumor was extracted, and divided for immunohistochemical analysis or analysis of RNA expression by RNA sequencing (RNA-seq).

H3K27ac = test: Western blotting of H3K27ac in treated NB cells; assay type: cell-based, human; details: Kelly cells, 24 h
Experimental: Cells growing in culture were lysed for whole cell lysates as described in Durbin et al. Nat. Genet. 50:1240-1246 (2018) and Wang et al. Nat. Commun. 10:5622 (2019). Nuclear lysates were prepared using the NE-PER® nuclear lysate kit (Thermo Scientific™) according to the manufacturer's protocol. Chromatin lysates were prepared with the total histone extraction kit (Epigentek). Briefly, equivalent amounts of protein were resolved by western blotting using 4-12% Bis-Tris NuPAGE™ gels (Thermo-Fisher Scientific) prior to transfer, and immunoblotting using primary antibodies to: MYCN (1:1000, Cell Signaling Technology®), H3K27ac (1:1000, Abcam), total H3 (1:1000, Cell Signaling Technology®), EP300 (1:1000, Abcam), CBP (1:500, Cell Signaling Technology®), Cas9 (1:1000, Cell Signaling Technology®), cleaved-PARP1 (1:1000, Cell Signaling Technology), cleaved Caspase-3 (1:1000, Cell Signaling Technology®), β-actin (1:1000, Cell Signaling Technology®), GATA3 (1:1000, EMD Millipore™), TFAP2β (1:1000, Cell Signaling Technology®), Vinculin (1:1000, EMD Millipore™), CRBN (1:1000, Cell Signaling Technology®), HAND2 (1:1000, Santa Cruz Biotechnology). Secondary antibodies were horseradish peroxidase (HRP)-conjugated anti-rabbit or anti-mouse (1:5000, Santa Cruz Biotechnology), incubated prior to exposure to enhanced chemiluminescence reagents (GE, Amersham). For immunoprecipitation, equal amounts of protein were diluted in buffer C as described in Mansour et al. Science 346:1373-1377 (2014) and incubated with antibodies covalently conjugated to Dynabeads™ M-270 beads (Thermo-Fisher Scientific) overnight according to the manufacturer's directions. Antibodies used included: H3K27ac, EP300 (Abcam), CBP, TFAP2β (Cell Signaling Technology®), rabbit immunoglobulin G (IgG) (Santa Cruz Biotechnology®). Immunoprecipitated protein was isolated as per the manufacturer's directions and subjected to western blotting, as described above, or mass spectrometry.

For `C[C@H](N(Cc1ccc(F)cc1)C(=O)CN1C(=O)O[C@@]2(CCc3cc(NC(=O)CCCCCCCCCCCNc4ccc5c(c4)C(=O)N(C4CCC(=O)NC4=O)C5=O)ccc32)C1=O)C(F)(F)F` (stereo partly drawn) [JQAD1, 12-((2-(2,6-dioxopiperidin-3-yl)-1,3-dioxoisoindolin-5-yl)amino)-N-((R)-3′-(2-((4-fluorobenzyl)((S)-1,1,1-trifluoropropan-2-yl)amino)-2-oxoethyl)-2′,4′-dioxo-2,3-dihydrospiro[indene-1,5′-oxazolidin]-5-yl)dodecanamide], the “expression of CRC genes and MYCN in tumors” value ([1]; 40 mg/Kg daily for 14 days) was “among the most downregulated genes”, the “RNA expression of super-enhancer versus typical-enhancer regulated genes in tumor cells” value ([1]; 40 mg/Kg once daily, p<0.0001) was “preferential downregulation of genes regulated by super-enhancers compared with those regulated by typical enhancers” and the body weight (Kelly NB cell xenografts; NSG mice) was “body weight was maintained over 14 days of treatment”. For the same compound, the survival (Kelly NB cell xenografts; log-rank p<0.0001 versus vehicle) was “prolongation of survival; also recorded: prolongs survival”, the xenograft tumor growth (Kelly NB cell xenografts; p<0.05) was “suppression of xenograft tumor growth by day 3 of treatment” and the H3K27ac modification (H3K27ac) was “parallel loss of the H3K27ac modification”. The H3K27ac modification (H3K27ac; listed as (R,S)-JQAD1) was “suppressed both H3K27ac and EP300 expression levels”.
